The subject of one assay is U937 cells. The experiment in a line: Cellular assay in U937 cells: activity of RIPK1 inhibitors on TNFα/zVAD.fmk-induced cell death (necroptosis), CellTiter 96 AQueous (MTS) readout. It is filed as cell-based. To be noted: Homo sapiens, U-937. The procedure, abridged:
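Necroptosis was measured by viable-cell MTS reduction (4 h, absorbance 490 nm) after overnight (18–24 h) 37° C culture. Cell suspensions of U937 cells carried TNFα (100 ng/ml) plus zVAD.fmk (50 μM) before compound was added. A 10-point curve (10 μM–0.26 nM or 1 μM–0.07 nM) was run in duplicate, normalised to the control lacking TNFα/zVAD.fmk.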

In assay [1] the target is T1, hRIPK1 (aa 1-375) fusion protein (Homo sapiens, UniProt Q13546).
T1 construct: hRIPK1 (aa 1-375) fusion protein
T1 sequence (Q13546 1-375): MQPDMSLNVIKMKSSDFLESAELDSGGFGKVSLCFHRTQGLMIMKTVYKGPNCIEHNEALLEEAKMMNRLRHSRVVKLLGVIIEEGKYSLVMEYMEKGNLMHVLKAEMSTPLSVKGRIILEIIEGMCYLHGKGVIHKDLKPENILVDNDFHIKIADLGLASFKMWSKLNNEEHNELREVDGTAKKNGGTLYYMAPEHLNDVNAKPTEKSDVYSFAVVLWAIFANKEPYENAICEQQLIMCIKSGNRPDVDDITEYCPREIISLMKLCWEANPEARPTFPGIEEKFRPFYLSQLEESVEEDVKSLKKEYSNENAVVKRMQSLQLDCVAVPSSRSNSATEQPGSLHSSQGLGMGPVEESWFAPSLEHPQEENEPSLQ
The experiment in a line: ADP-Glo kinase assay: catalytic activity of RIPK1 (autophosphorylation, conversion of ATP to ADP). Type of assay: biochemical. The procedure, abridged:
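The readout was ADP-Glo luminescence after a 240 min rt autophosphorylation reaction with 50 μM ATP, following 30 min preincubation of 3.6 μg/ml hRIPK1 (aa 1-375) fusion with compound at 33300-1.69 nM final in 1% DMSO. Values came from Levenberg-Marquardt nonlinear fits.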

What is called IC50 is the concentration needed to halve the response being measured. As to `N#Cc1cncc(C[C@H]2CC[C@H](C(=O)N3OCC[C@H]3c3cc(F)cc(C#N)c3)CC2)c1` [compound 141, trans-5-[[4-[(3S)-3-(3-cyano-5-fluoro-phenyl)isoxazolidine-2-carbonyl]cyclohexyl]methyl]pyridine-3-carbonitrile], the IC50 in the assay with U937 cells amounted to 17 nM; in assay [1], 13 nM.
With `Cc1cc(C[C@H]2CC[C@H](C(=O)N3OCC[C@H]3c3cnccn3)CC2)c(F)cn1` [compound 394, trans-[4-[(5-fluoro-2-methylpyridin-4-yl)methyl]cyclohexyl]-[(3S)-3-pyrazin-2-yl-1,2-oxazolidin-2-yl]methanone], the half-inhibitory concentration (IC50) amounted to 5 nM in the assay on U937 cells and 14 nM in assay [1].
For `Cc1nccn1-c1cc(F)cc(C[C@H]2CC[C@H](C(=O)N3OCC[C@H]3c3cnccn3)CC2)c1` [compound 209, trans-[4-[[3-fluoro-5-(2-methylimidazol-1-yl)phenyl]methyl]cyclohexyl]-[(3S)-3-pyrazin-2-ylisoxazolidin-2-yl]methanone], in that order: 54 nM and 22 nM.
For `Cc1cn2cc(C[C@H]3CC[C@H](C(=O)N4OCC[C@H]4c4csc(C)n4)CC3)cc(F)c2n1` [compound 370, trans-[4-(8-Fluoro-2-methyl-imidazo[1,2-a]pyridin-6-ylmethyl)-cyclohexyl]-[(S)-3-(2-methyl-thiazol-4-yl)-isoxazolidin-2-yl]-methanone], in that order: 21 nM and 34 nM.
Turning to `Cc1nc([C@@H]2CCON2C(=O)[C@H]2CC[C@H](Cc3cc(C)c4ncnn4c3)CC2)cs1` [compound 362, trans-[(S)-3-(2-Methyl-thiazol-4-yl)-isoxazolidin-2-yl]-[4-(8-methyl-[1,2,4]triazolo[1,5-a]pyridin-6-ylmethyl)-cyclohexyl]-methanone], the IC50 with U937 cells amounted to 52 nM; in assay [1], 59 nM.
In the same order, the values of `O=C([C@H]1CC[C@H](Cc2ccc(C3(O)COC3)cc2)CC1)N1OCC[C@H]1c1cnccn1` [compound 352, trans-[4-[[4-(3-hydroxyoxetan-3-yl)phenyl]methyl]cyclohexyl]-[(3S)-3-pyrazin-2-yl-1,2-oxazolidin-2-yl]methanone] are 58 nM and 30 nM.
Turning to `O=C([C@H]1CC[C@H](Cc2ccc(CCO)c(F)c2)CC1)N1OCC[C@H]1c1cc(F)cc(F)c1` [compound 280, trans-[(3S)-3-(3,5-difluorophenyl)isoxazolidin-2-yl]-[4-[[3-fluoro-4-(2-hydroxyethyl)phenyl]methyl]cyclohexyl]methanone], the IC50 in the assay with U937 cells came to 7 nM; in assay [1], 13 nM.
For `Cc1ccc([C@@H]2CCON2C(=O)[C@H]2CC[C@H](Cc3cc(F)c4nnc(C)n4c3)CC2)cn1` [compound 364, trans-[4-(8-Fluoro-3-methyl-[1,2,4]triazolo[4,3-a]pyridin-6-ylmethyl)-cyclohexyl]-[(S)-3-(6-methyl-pyridin-3-yl)-isoxazolidin-2-yl]-methanone], in that order: 491 nM and 234 nM.
For the compound `NC(=O)c1cc(F)c2ncn(C[C@H]3CC[C@H](C(=O)N4OCC[C@H]4c4cc(F)cc(F)c4)CC3)c2c1` [compound 81, trans-1-((4-((S)-3-(3,5-difluorophenyl)isoxazolidine-2-carbonyl)cyclohexyl)methyl)-4-fluoro-1H-benzo[d]imidazole-6-carboxamide], the IC50 was determined as 166 nM in the assay on U937 cells and 33 nM in assay [1].
In the same order, the values of `Cc1nnc2c(F)cc(C[C@H]3CC[C@H](C(=O)N4OCC[C@H]4c4cnccn4)CC3)cn12` [compound 359, trans-[4-[(8-fluoro-3-methyl-[1,2,4]triazolo[4,3-a]pyridin-6-yl)methyl]cyclohexyl]-[(3S)-3-pyrazin-2-yl-1,2-oxazolidin-2-yl]methanone] are 451 nM and 104 nM.
In the same order, the values of `Cc1nn(C[C@H]2CC[C@H](C(=O)N3OCC[C@H]3c3cc(F)cc(C#N)c3)CC2)c2cc(C(N)=O)cc(F)c12` [compound 102, trans-1-((4-((S)-3-(3-cyano-5-fluorophenyl)isoxazolidine-2-carbonyl)cyclohexyl)methyl)-4-fluoro-3-methyl-1H-indazole-6-carboxamide] are 37 nM and 23 nM.
As for `N#Cc1cc(F)cc([C@@H]2CCON2C(=O)[C@H]2CC[C@H](Cc3ccc(CCO)c(F)c3)CC2)c1` [compound 279, trans-3-fluoro-5-[(3S)-2-[4-[[3-fluoro-4-(2-hydroxyethyl)phenyl]methyl]cyclohexanecarbonyl]isoxazolidin-3-yl]benzonitrile], the IC50 in the assay with U937 cells came to 9 nM; in assay [1], 7 nM.
For `Cc1nn(C)cc1-c1cncc(C[C@H]2CC[C@H](C(=O)N3OCC[C@H]3c3cnccn3)CC2)c1` [compound 308, trans-[4-[[5-(1,3-dimethylpyrazol-4-yl)-3-pyridyl]methyl]cyclohexyl]-[(3S)-3-pyrazin-2-ylisoxazolidin-2-yl]methanone], the figures for the IC50 (in the assay with U937 cells; in assay [1]) were 47 nM and 21 nM, respectively.
For `Cn1cc(C[C@H]2CC[C@H](C(=O)N3OCC[C@H]3c3cc(F)cc(C#N)c3)CC2)cn1` [compound 150, trans-3-fluoro-5-[(3S)-2-[4-[(1-methylpyrazol-4-yl)methyl]cyclohexanecarbonyl]isoxazolidin-3-yl]benzonitrile], in that order: 25 nM and 21 nM.
For `Cc1cc(C[C@H]2CC[C@H](C(=O)N3OCC[C@H]3c3cnc(C)c(F)c3)CC2)cnn1` [compound 398, trans-[(3S)-3-(5-fluoro-6-methylpyridin-3-yl)-1,2-oxazolidin-2-yl]-[4-[(6-methylpyridazin-4-yl)methyl]cyclohexyl]methanone], in that order: 182 nM and 64 nM.
In the same order, the values of `COc1cncc([C@@H]2CCON2C(=O)[C@H]2CC[C@H](Cn3ncc4cc(C#N)ccc43)CC2)n1` [compound 217, trans-1-[[4-[(3S)-3-(6-methoxypyrazin-2-yl)isoxazolidine-2-carbonyl]cyclohexyl]methyl]indazole-5-carbonitrile] are 12 nM and 41 nM.
For `Cc1ccc([C@@H]2CCON2C(=O)[C@H]2CC[C@H](Cc3cc(F)c4nc(C)nn4c3)CC2)cn1` [compound 341, trans-[4-[(8-fluoro-2-methyl-[1,2,4]triazolo[1,5-a]pyridin-6-yl)methyl]cyclohexyl]-[(3S)-3-(6-methylpyridin-3-yl)-1,2-oxazolidin-2-yl]methanone], the IC50 in the assay on U937 cells was 114 nM; in assay [1], 81 nM.
For `Cc1cncc([C@@H]2CCON2C(=O)[C@H]2CC[C@H](Cc3cc(C)c4ncnn4c3)CC2)c1` [compound 334, trans-[(3S)-3-(5-methylpyridin-3-yl)-1,2-oxazolidin-2-yl]-[4-[(8-methyl-[1,2,4]triazolo[1,5-a]pyridin-6-yl)methyl]cyclohexyl]methanone], in that order: 35 nM and 20 nM.
For `Cc1nnc2ccc(CC3CCC(C(=O)N4OCC[C@H]4c4cnccn4)CC3)c(C)n12` (stereo partly drawn) [compound 358, [4-[(3,5-dimethyl-[1,2,4]triazolo[4,3-a]pyridin-6-yl)methyl]cyclohexyl]-[(3S)-3-pyrazin-2-yl-1,2-oxazolidin-2-yl]methanone], in that order: 481 nM and 31 nM.
As to `Cc1ccc([C@@H]2CCON2C(=O)[C@H]2CC[C@H](Cc3cnc4cnn(C)c4c3)CC2)cn1` [compound 329, trans-[4-[(1-methylpyrazolo[4,3-b]pyridin-6-yl)methyl]cyclohexyl]-[(3S)-3-(6-methylpyridin-3-yl)-1,2-oxazolidin-2-yl]methanone], the IC50 was found to be 82 nM in the assay on U937 cells and 44 nM in assay [1].
For the compound `N#Cc1cc(F)cc([C@@H]2CCON2C(=O)[C@H]2CC[C@H](Cn3ccc4cc(F)ccc43)CC2)c1` [compound 95, trans-3-fluoro-5-((S)-2-(4-((5-fluoro-1H-indol-1-yl)methyl)cyclohexane-1-carbonyl)isoxazolidin-3-yl)benzonitrile], the results for the IC50 (in the assay with U937 cells; in assay [1]) were 4 nM and 22 nM, respectively.
For `Cc1nc2c(C)cc(C[C@H]3CC[C@H](C(=O)N4OCC[C@H]4c4cc(F)cc(C#N)c4)CC3)cn2n1` [compound 288, trans-3-[(3S)-2-[4-[(2,8-dimethyl-[1,2,4]triazolo[1,5-a]pyridin-6-yl)methyl]cyclohexanecarbonyl]isoxazolidin-3-yl]-5-fluoro-benzonitrile], the IC50 in the assay with U937 cells is 4 nM; in assay [1] it was 17 nM.
For `Cc1nccn1-c1cc(F)cc(C[C@H]2CC[C@H](C(=O)N3OCC[C@H]3c3cc(F)cc(F)c3)CC2)c1` [compound 208, trans-[(3S)-3-(3,5-difluorophenyl)isoxazolidin-2-yl]-[4-[[3-fluoro-5-(2-methylimidazol-1-yl)phenyl]methyl]cyclohexyl]methanone], the figures for the IC50 (with U937 cells; in assay [1]) were 12 nM and 24 nM, respectively.

The values are drawn from patent US20260158009A1 (GENZYME CORPORATION, priority 2023, published 2026).
